PubChem BioAssay (NCI)
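Test compounds were applied to cells in 96-well plates for 48 hours at 5 doses. At the TGI there is no net growth.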

Tests used:
Assay in all cases: NCI anticancer screen, dose series, 48 h
KM12 colon = system: KM12 colon
K-562 leukemia = system: K-562 leukemia
SK-MEL-28 melanoma = system: SK-MEL-28 melanoma
IGROV1 ovarian = system: IGROV1 ovarian
M19-MEL melanoma = system: M19-MEL melanoma
A549 NSCLC = system: A549 NSCLC
SR leukemia = system: SR leukemia
OVCAR-8 ovarian = system: OVCAR-8 ovarian
M14 melanoma = system: M14 melanoma
DMS 114 small cell lung = system: DMS 114 small cell lung
UO-31 renal = system: UO-31 renal
HCC-2998 colon = system: HCC-2998 colon
UACC-257 melanoma = system: UACC-257 melanoma
HCT-15 colon = system: HCT-15 colon
NCI-H460 lung = system: NCI-H460 lung
UACC-62 melanoma = system: UACC-62 melanoma
SNB-78 CNS = system: SNB-78 CNS
SNB-19 CNS = system: SNB-19 CNS
NCI-H23 lung = system: NCI-H23 lung
786-0 renal = system: 786-0 renal
RXF-631 renal = system: RXF-631 renal
TK-10 renal = system: TK-10 renal
DLD-1 colon = system: DLD-1 colon
HT29 colon = system: HT29 colon
LOX IMVI melanoma = system: LOX IMVI melanoma
SK-MEL-5 melanoma = system: SK-MEL-5 melanoma
HCT-116 colon = system: HCT-116 colon
NCI-H226 lung = system: NCI-H226 lung
SN12C renal = system: SN12C renal
DMS 273 small cell lung = system: DMS 273 small cell lung
OVCAR-5 ovarian = system: OVCAR-5 ovarian
U251 CNS = system: U251 CNS
SNB-75 CNS = system: SNB-75 CNS
MALME-3M melanoma = system: MALME-3M melanoma
OVCAR-3 ovarian = system: OVCAR-3 ovarian
HOP-62 NSCLC = system: HOP-62 NSCLC
ACHN renal = system: ACHN renal
SW-620 colon = system: SW-620 colon
SK-MEL-2 melanoma = system: SK-MEL-2 melanoma
MOLT-4 leukemia = system: MOLT-4 leukemia
OVCAR-4 ovarian = system: OVCAR-4 ovarian
SK-OV-3 ovarian = system: SK-OV-3 ovarian
SF-268 CNS = system: SF-268 CNS
CCRF-CEM leukemia = system: CCRF-CEM leukemia
HOP-18 NSCLC = system: HOP-18 NSCLC
NCI-H522 lung = system: NCI-H522 lung
SF-539 CNS = system: SF-539 CNS
KM20L2 colon = system: KM20L2 colon
LXFL 529 NSCLC = system: LXFL 529 NSCLC
COLO 205 colon = system: COLO 205 colon
A498 renal = system: A498 renal
HL-60(TB) leukemia = system: HL-60(TB) leukemia
EKVX NSCLC = system: EKVX NSCLC
RXF 393 renal = system: RXF 393 renal
RPMI-8226 leukemia = system: RPMI-8226 leukemia
HOP-92 NSCLC = system: HOP-92 NSCLC
MDA-MB-231 breast = system: MDA-MB-231 breast
BT-549 breast = system: BT-549 breast
PC-3 prostate = system: PC-3 prostate
T-47D breast = system: T-47D breast
SF-295 CNS = system: SF-295 CNS
NCI/ADR-RES ovarian = system: NCI/ADR-RES ovarian
MDA-MB-435 = system: MDA-MB-435
DU-145 prostate = system: DU-145 prostate
CAKI-1 renal = system: CAKI-1 renal
MDA-N = system: MDA-N
XF 498 CNS = system: XF 498 CNS
HS 578T breast = system: HS 578T breast
MCF7 breast = system: MCF7 breast

SMILES: O=C1C[C@@H]2C(COC(=O)c3ccccc3)N(OCc3ccccc3)C[C@@H]2O1 (stereo not given in full)
- TGI (KM12 colon): > 100 µM
- TGI (K-562 leukemia): > 100 µM
- TGI (SK-MEL-28 melanoma): > 100 µM
- TGI (IGROV1 ovarian): > 100 µM
- TGI (M19-MEL melanoma): > 100 µM
- TGI (A549 NSCLC): > 100 µM
- TGI (SR leukemia): > 100 µM
- TGI (OVCAR-8 ovarian): > 100 µM
- TGI (M14 melanoma): > 100 µM
- TGI (DMS 114 small cell lung): > 100 µM
- TGI (UO-31 renal): > 100 µM
- TGI (HCC-2998 colon): > 100 µM
- TGI (UACC-257 melanoma): > 100 µM
- TGI (HCT-15 colon): > 100 µM
- TGI (NCI-H460 lung): > 100 µM
- TGI (UACC-62 melanoma): > 100 µM
- TGI (SNB-78 CNS): > 100 µM
- TGI (SNB-19 CNS): > 100 µM
- TGI (NCI-H23 lung): > 100 µM
- TGI (786-0 renal): > 100 µM
- TGI (RXF-631 renal): > 100 µM
- TGI (TK-10 renal): > 100 µM
- TGI (DLD-1 colon): > 100 µM
- TGI (HT29 colon): > 100 µM
- TGI (LOX IMVI melanoma): > 100 µM
- TGI (SK-MEL-5 melanoma): > 100 µM
- TGI (HCT-116 colon): > 100 µM
- TGI (NCI-H226 lung): > 100 µM
- TGI (SN12C renal): > 100 µM
- TGI (DMS 273 small cell lung): > 100 µM
- TGI (OVCAR-5 ovarian): > 100 µM
- TGI (U251 CNS): > 100 µM
- TGI (SNB-75 CNS): > 100 µM
- TGI (MALME-3M melanoma): > 100 µM
- TGI (OVCAR-3 ovarian): > 100 µM
- TGI (HOP-62 NSCLC): > 100 µM
- TGI (ACHN renal): > 100 µM
- TGI (SW-620 colon): > 100 µM
- TGI (SK-MEL-2 melanoma): > 100 µM
- TGI (MOLT-4 leukemia): > 100 µM
- TGI (OVCAR-4 ovarian): > 100 µM
- TGI (SK-OV-3 ovarian): > 100 µM
- TGI (SF-268 CNS): > 100 µM
- TGI (CCRF-CEM leukemia): > 100 µM
- TGI (HOP-18 NSCLC): > 100 µM
- TGI (NCI-H522 lung): > 100 µM
- TGI (SF-539 CNS): > 100 µM
- TGI (KM20L2 colon): > 100 µM
- TGI (LXFL 529 NSCLC): > 100 µM
- TGI (COLO 205 colon): > 100 µM
- TGI (A498 renal): > 100 µM
- TGI (HL-60(TB) leukemia): > 100 µM
- TGI (EKVX NSCLC): > 100 µM
- TGI (RXF 393 renal): > 100 µM

SMILES: COC1=C(N=[N+]=[N-])C(=O)c2ncccc2C1=O
- TGI (KM12 colon): 29.5 µM
- TGI (K-562 leukemia): 15.2 µM
- TGI (RPMI-8226 leukemia): 4.89 µM
- TGI (SK-MEL-28 melanoma): 27.4 µM
- TGI (HOP-92 NSCLC): 2.56 µM
- TGI (IGROV1 ovarian): 13.1 µM
- TGI (M19-MEL melanoma): 3.8 µM
- TGI (A549 NSCLC): 32.1 µM
- TGI (SR leukemia): > 100 µM
- TGI (OVCAR-8 ovarian): 7.56 µM
- TGI (M14 melanoma): 8.66 µM
- TGI (DMS 114 small cell lung): 19.6 µM
- TGI (UO-31 renal): 27.6 µM
- TGI (HCC-2998 colon): 31 µM
- TGI (UACC-257 melanoma): 13 µM
- TGI (HCT-15 colon): 20.4 µM
- TGI (MDA-MB-231 breast): 25 µM
- TGI (BT-549 breast): 23 µM
- TGI (NCI-H460 lung): 32.6 µM
- TGI (UACC-62 melanoma): 20.8 µM
- TGI (SNB-78 CNS): 12.7 µM
- TGI (SNB-19 CNS): 30.9 µM
- TGI (NCI-H23 lung): 16.1 µM
- TGI (786-0 renal): 16.3 µM
- TGI (PC-3 prostate): 29 µM
- TGI (RXF-631 renal): 29.9 µM
- TGI (TK-10 renal): 20.4 µM
- TGI (DLD-1 colon): 3.14 µM
- TGI (HT29 colon): 33 µM
- TGI (LOX IMVI melanoma): 7.78 µM
- TGI (SK-MEL-5 melanoma): 23.4 µM
- TGI (HCT-116 colon): 6.57 µM
- TGI (NCI-H226 lung): 35.9 µM
- TGI (SN12C renal): 29.1 µM
- TGI (DMS 273 small cell lung): 25.7 µM
- TGI (T-47D breast): 3.85 µM
- TGI (OVCAR-5 ovarian): 33.8 µM
- TGI (U251 CNS): 27.7 µM
- TGI (SF-295 CNS): 29 µM
- TGI (NCI/ADR-RES ovarian): 25.6 µM
- TGI (SNB-75 CNS): 26 µM
- TGI (MALME-3M melanoma): 5.03 µM
- TGI (OVCAR-3 ovarian): 15.5 µM
- TGI (HOP-62 NSCLC): 29.4 µM
- TGI (ACHN renal): 15 µM
- TGI (MDA-MB-435): 4.41 µM
- TGI (DU-145 prostate): 35.1 µM
- TGI (SW-620 colon): 4.24 µM
- TGI (SK-MEL-2 melanoma): 37.5 µM
- TGI (CAKI-1 renal): 13.3 µM
- TGI (MOLT-4 leukemia): 2.86 µM
- TGI (MDA-N): 3.69 µM
- TGI (OVCAR-4 ovarian): 5.7 µM
- TGI (SK-OV-3 ovarian): 28.5 µM
- TGI (SF-268 CNS): 28.5 µM
- TGI (NCI-H522 lung): 3.9 µM
- TGI (SF-539 CNS): 30.5 µM
- TGI (KM20L2 colon): 33 µM
- TGI (LXFL 529 NSCLC): 3.15 µM
- TGI (COLO 205 colon): 6.35 µM
- TGI (XF 498 CNS): 16.4 µM
- TGI (HS 578T breast): 48.6 µM
- TGI (A498 renal): 30.9 µM
- TGI (HL-60(TB) leukemia): 3.98 µM
- TGI (EKVX NSCLC): 17.3 µM
- TGI (MCF7 breast): 3.41 µM
- TGI (RXF 393 renal): 11.9 µM

SMILES: CN1c2ccccc2N(C)C2C1N(C)c1ccccc1N2C (stereo not given)
- TGI (KM12 colon): > 100 µM
- TGI (K-562 leukemia): > 100 µM
- TGI (RPMI-8226 leukemia): 62.9 µM
- TGI (SK-MEL-28 melanoma): 17.6 µM
- TGI (HOP-92 NSCLC): 52.4 µM
- TGI (IGROV1 ovarian): > 100 µM
- TGI (M19-MEL melanoma): 32.7 µM
- TGI (A549 NSCLC): > 100 µM
- TGI (OVCAR-8 ovarian): > 100 µM
- TGI (M14 melanoma): 65 µM
- TGI (DMS 114 small cell lung): 26 µM
- TGI (UO-31 renal): 82.2 µM
- TGI (HCC-2998 colon): 30.9 µM
- TGI (UACC-257 melanoma): > 100 µM
- TGI (NCI-H460 lung): > 100 µM
- TGI (UACC-62 melanoma): 24.9 µM
- TGI (SNB-78 CNS): > 100 µM
- TGI (SNB-19 CNS): 80.2 µM
- TGI (NCI-H23 lung): 74.7 µM
- TGI (786-0 renal): > 100 µM
- TGI (RXF-631 renal): > 100 µM
- TGI (TK-10 renal): > 100 µM
- TGI (DLD-1 colon): 62.6 µM
- TGI (HT29 colon): > 100 µM
- TGI (SK-MEL-5 melanoma): 18.4 µM
- TGI (HCT-116 colon): 42.4 µM
- TGI (NCI-H226 lung): 83.2 µM
- TGI (SN12C renal): > 100 µM
- TGI (DMS 273 small cell lung): > 100 µM
- TGI (OVCAR-5 ovarian): > 100 µM
- TGI (U251 CNS): > 100 µM
- TGI (SF-295 CNS): > 100 µM
- TGI (SNB-75 CNS): 71.1 µM
- TGI (MALME-3M melanoma): 76.4 µM
- TGI (OVCAR-3 ovarian): 50.2 µM
- TGI (HOP-62 NSCLC): > 100 µM
- TGI (ACHN renal): > 100 µM
- TGI (SW-620 colon): > 100 µM
- TGI (SK-MEL-2 melanoma): 69.6 µM
- TGI (CAKI-1 renal): > 100 µM
- TGI (MOLT-4 leukemia): 9.69 µM
- TGI (OVCAR-4 ovarian): > 100 µM
- TGI (SF-268 CNS): 46.6 µM
- TGI (CCRF-CEM leukemia): 9.73 µM
- TGI (NCI-H522 lung): 26 µM
- TGI (SF-539 CNS): 45.8 µM
- TGI (KM20L2 colon): > 100 µM
- TGI (LXFL 529 NSCLC): > 100 µM
- TGI (COLO 205 colon): 29.4 µM
- TGI (XF 498 CNS): 21.7 µM
- TGI (A498 renal): 84.1 µM
- TGI (HL-60(TB) leukemia): 7 µM
- TGI (EKVX NSCLC): > 100 µM
- TGI (RXF 393 renal): 32.6 µM
